Structures are written as SMILES. ≈ marks a conversion by molar mass, not a printed value.

One assay deals with ADP-induced aggregation of human platelets. Format: cell-based. Particulars: vs ADP, 0.5 mcg/mL final; human platelet rich plasma; Table 2; read-out: Inhibition of Human Platelet Aggregation of Formula II Compounds (IC50) Vs ADP.
Method: The aggregometer method of Born, C.V.R., J. Physiol., (London), 1962, 162, 67-68, as modified by Mustard, J.F., et al., J. Lab. […] The blood is immediately added to a test tube containing 3.8% sodium citrate to prevent clotting (1 part citrate to 9 parts blood).
Platelet rich plasma (PRP) was separated by centrifugation for 10 minutes at 1000 rpm (140xg) from citrated (3.8%) human blood. All glassware used for preparation of PRP is silicon treated. ADP in final concentration of 0.5 mcg/mL or 0.05 mL of a collagen suspension prepared according to the method described by Evans, G., et al., J. Exp. Med., 1968, 128, 877-894 was used to induce aggregation. The various compounds tested were dissolved in dimethylsulfoxide (DMSO) so that 5 mcl added to the platelet rich plasma would yield the desired test concentration. Vehicle control trials were done and compared with aggregation induced in platelet rich plasma containing various concentrations of the test compounds. Dose response curves were obtained and Inhibitor Concentration (IC50) values calculated.
One may read the IC50 as the concentration at which inhibition is half-maximal. Consider `COC(=O)COc1cccc(CCn2nc(-c3ccccc3)c(-c3ccccc3)nc2=O)c1` [Example 5, Methyl [3-[2-(2,3-dihydro-3-oxo-5,6-diphenyl-1,2,4-triazin-2-yl)ethyl]phenoxy]acetate], for which the IC50 is 1 µg/mL (≈ 2.27 µM). Still for that read-out and setting: the value for `O=C(O)COc1cccc(CCn2nc(-c3ccccc3)c(-c3ccccc3)nc2=O)c1` [Example 6, [3-[2-(2,3-Dihydro-3-oxo-5,6-diphenyl 1,2,4-triazin-2-yl)ethyl]phenoxy]acetic Acid] was 0.9 µg/mL (≈ 2.11 µM).

The assay is the same for the next values; noted with them: vs. ADP, 0.5 mcg/mL final; human platelet rich plasma; Table 1; read-out: Inhibition of Human Platelet Aggregation of Formula I Compounds (IC50) vs. ADP.
Turning to `COC(=O)CCCCCCCCn1nc(-c2ccccc2)c(-c2ccccc2)nc1=O` [Example 1, Methyl 3-oxo-5,6-diphenyl-1,2,4-triazine-2(3H)-nonanoate], the IC50 was 6.8 µg/mL (≈ 16.2 µM).

For the molecule `O=C(O)CCCCCCCCn1nc(-c2ccccc2)c(-c2ccccc2)nc1=O` [Example 2, 3-Oxo-5,6-diphenyl-1,2,4-triazine-2(3H)-nonanoic acid], the IC50 came to 2.2 µg/mL (≈ 5.43 µM). The same measure, in the same setting: the value for `COC(=O)CCCCCCCn1nc(-c2ccccc2)c(-c2ccccc2)nc1=O` [Example 3, Methyl 3-Oxo-5,6-diphenyl-1,2,4-triazine-2(3H)-octanoate] was 4.6 µg/mL (≈ 11.3 µM); that for `O=C(O)CCCCCCCn1nc(-c2ccccc2)c(-c2ccccc2)nc1=O` [Example 4, 3-Oxo-5,6-diphenyl-1,2,4-triazin-2(3H)-octanoic Acid] was 3.1 µg/mL (≈ 7.92 µM).
